Source: US7244734B2, “Hexa- and octahydro-pyrido[1,2-a]pyrazine derivatives with NK1 antagonistic activity” (Solvay Pharmaceuticals B.V., priority 2003, dated 2007)

Key:
human NK1 receptor = target: T1, human NK1 receptor (Homo sapiens, UniProt P25103); experiment: Receptor binding for human NK1 receptors ([3H]-substance P displacement, CHO cell membranes); settings: human NK1 receptor in CHO membranes, read-out: affinity NK-1 binding pKi (converted)
T1 construct: expressed in transfected cells; membranes
Description: Receptor Binding for Human NK1 Receptors
Affinity of the compounds for human NK1 receptors was assessed using radio-receptor binding assays. Membrane preparations were prepared from Chinese Hamster Ovarium fibroblast (CHO) cells in which the human NK1 receptor was stably expressed. Membranes were incubated with [^3H]-substance P in the absence or the presence of specified concentrations of the compounds, diluted in a suitable buffer in presence of peptidase inhibitor for 10 min at 25° C. Separation of bound radioactivity from free was done by filtration over Whatman GF/B glass fiber filters with two 5 sec washings. Bound radioactivity was counted by liquid scintillation counting using a Betaplate counter. Measured radioactivity was plotted against the concentration of the displacing test compound and displacement curves were calculated by four-parameter logistic regression, resulting in IC50 values, i.e. that concentration of displacing compound by which 50% of the radioligand is displaced. Affinity pKI values were calculated by correcting the IC50 values for radioligand concentration and its affinity for the human NK1 receptor according to the Cheng-Prusoff equation: pKi=−log [IC50/(1+S/Kd)] in which the IC50 is as described above, S is the concentration [^3H]-substance P used in the assay expressed in mol/l, and Kd is the equilibrium dissociation constant of [^3H]-substance P for human NK1 receptors (in mol/l). cAMP Measurements

[1] = system: NK1 agonist-induced gerbil foot-tapping; experiment: NK1 agonist (GR 73632)-induced gerbil foot-tapping; settings: Meriones unguiculatus, po, 60 min before anaesthesia; GR 73632 i.c.v.; male gerbils; read-out: In vivo antagonism Gerbil foot tapping p.o. ED50
Description: Concentration-response relationships were constructed by plotting cAMP conversion against compound concentration and IC50 values were calculated by four-parameter logistic regression. Antagonist potencies (pA2) values were calculated using: […] in which the IC50 of the test compound was obtained from concentration-effect relationships, [SP] is the concentration of substance P (in mol/l; typically 10 nM), and the EC50 is the potency of substance P at human cloned NK1 receptors. NK1 Agonist—Induced Gerbil Foot-Tapping
Therefore, we have used this model to assess the in vivo activity of the compounds of the invention.
60 min prior to anaesthesia with N2O (0.8 L/min), halothane (3%) and O2 (0.8 L/min) male gerbils (40-60 g; Charles River) received an injection of vehicle or test compound (p.o.). Upon successful narcosis the anaesthetic was adjusted to N2O (0.6 L/min), halothane (1.5%) and O2 (0.6 L/min) and a midline scalp incision made. GR 73632 was infused into the cerebroventricular space (AP−0.5 mm, L−1.2 mm, and vertical−4.5 mm from bregma). Following recovery from anaesthesia (about 3-4 min) the foot tapping response was recorded for 5 minutes. The predefined criterion for antagonism of this response was defined as inhibition of foot tapping for ≧5 min.

T1 sequence (P25103 whole entry): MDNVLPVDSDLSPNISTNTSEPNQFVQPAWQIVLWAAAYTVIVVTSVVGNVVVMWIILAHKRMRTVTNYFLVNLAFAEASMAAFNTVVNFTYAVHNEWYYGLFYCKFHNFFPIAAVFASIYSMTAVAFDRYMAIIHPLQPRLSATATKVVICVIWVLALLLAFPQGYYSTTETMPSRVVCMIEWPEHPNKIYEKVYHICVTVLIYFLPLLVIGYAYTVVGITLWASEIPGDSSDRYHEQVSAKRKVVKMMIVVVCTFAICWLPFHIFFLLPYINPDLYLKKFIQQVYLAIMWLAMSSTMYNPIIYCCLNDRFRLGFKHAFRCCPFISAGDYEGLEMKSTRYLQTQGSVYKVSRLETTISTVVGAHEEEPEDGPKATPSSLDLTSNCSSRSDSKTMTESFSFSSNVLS

Row | Ki (human NK1 receptor) [nM] | Compound | ED50 [1] [mg/kg]
1 | 2.51 | O=C(c1cc(C(F)(F)F)cc(C(F)(F)F)c1)N1C[C@H]2CCC(c3cnccn3)=CN2C[C@H]1Cc1c[nH]c2ccccc12 [Compound 5, (3R,9aR)-(3,5-bis(trifluoromethyl)phenyl)-[3-(1H-indol-3-ylmethyl)-7-pyrazin-2-yl-1,3,4,8,9,9a-hexahydro-pyrido[1,2-a]pyrazin-2-yl]-methanone] | 
2 | 1.58 | O=C(c1cc(C(F)(F)F)cc(C(F)(F)F)c1)N1C[C@H]2CCC(c3ncccn3)=CN2C[C@H]1Cc1c[nH]c2ccccc12 [Compound 6, (3R,9aR)-(3,5-bis(trifluoromethyl)phenyl)-[3-(1H-indol-3-ylmethyl)-7-pyrimidin-2-yl-1,3,4,8,9,9a-hexahydro-pyrido[1,2-a]pyrazin-2-yl]-methanone] | 
3 | 3.16 | O=C(c1cc(C(F)(F)F)cc(C(F)(F)F)c1)N1C[C@H]2CCC(c3ccccn3)=CN2C[C@H]1Cc1c[nH]c2ccccc12 [Compound 3, (3R,9aR)-(3,5-bis(trifluoromethyl)phenyl)-[3-(1H-indol-3-ylmethyl)-7-pyridin-2-yl-1,3,4,8,9,9a-hexahydro-pyrido[1,2-a]pyrazin-2-yl]-methanone] | 2.2
4 | 15.8 | O=C(c1cc(C(F)(F)F)cc(C(F)(F)F)c1)N1C[C@H]2CCC(c3ccncc3)=CN2C[C@H]1Cc1c[nH]c2ccccc12 [Compound 1, (3R,9aR)-(3,5-bis(trifluoromethyl)phenyl)-[3-(1H-indol-3-ylmethyl)-7-pyridin-4-yl-1,3,4,8,9,9a-hexahydro-pyrido[1,2-a]pyrazin-2-yl]-methanone] | 1.7
5 | 7.94 | O=C(c1cc(C(F)(F)F)cc(C(F)(F)F)c1)N1C[C@H]2CCC(c3cncnc3)=CN2C[C@H]1Cc1c[nH]c2ccccc12 [Compound 4, (3R,9aR)-(3,5-bis(trifluoromethyl)phenyl)-[3-(1H-indol-3-ylmethyl)-7-pyrimidin-5-yl-1,3,4,8,9,9a-hexahydro-pyrido[1,2-a]pyrazin-2-yl]-methanone] | 
6 | 20 | O=C(c1cc(C(F)(F)F)cc(C(F)(F)F)c1)N1C[C@H]2CCC(c3cccnc3)=CN2C[C@H]1Cc1c[nH]c2ccccc12 [Compound 2, (3R,9aR)-(3,5-bis(trifluoromethyl)phenyl)-[3-(1H-indol-3-ylmethyl)-7-pyridin-3-yl-1,3,4,8,9,9a-hexahydro-pyrido[1,2-a]pyrazin-2-yl]-methanone] | 
7 | 0.631 | O=C(c1cc(C(F)(F)F)cc(C(F)(F)F)c1)N1C[C@H]2CCC(c3nccs3)=CN2C[C@H]1Cc1c[nH]c2ccccc12 [Compound 7, (3R,9aR)-(3,5-bis(trifluoromethyl)phenyl)-[3-(1H-indol-3-ylmethyl)-7-thiazol-2-yl-1,3,4,8,9,9a-hexahydro-pyrido[1,2-a]pyrazin-2-yl]-methanone] | 3.4
